Data on 6 compounds can be found in article PMC4683934, “Effect of an ethanol extract of Descurainia sophia seeds on Phase I and II drug metabolizing enzymes and P-glycoprotein activity in vitro” (BMC Complementary and Alternative Medicine, 2015).

One series deals with T1, UGT1A1 (Homo sapiens, UniProt P22309).
T1 construct: purchased Promega V2120
T1 sequence (P22309 26-533): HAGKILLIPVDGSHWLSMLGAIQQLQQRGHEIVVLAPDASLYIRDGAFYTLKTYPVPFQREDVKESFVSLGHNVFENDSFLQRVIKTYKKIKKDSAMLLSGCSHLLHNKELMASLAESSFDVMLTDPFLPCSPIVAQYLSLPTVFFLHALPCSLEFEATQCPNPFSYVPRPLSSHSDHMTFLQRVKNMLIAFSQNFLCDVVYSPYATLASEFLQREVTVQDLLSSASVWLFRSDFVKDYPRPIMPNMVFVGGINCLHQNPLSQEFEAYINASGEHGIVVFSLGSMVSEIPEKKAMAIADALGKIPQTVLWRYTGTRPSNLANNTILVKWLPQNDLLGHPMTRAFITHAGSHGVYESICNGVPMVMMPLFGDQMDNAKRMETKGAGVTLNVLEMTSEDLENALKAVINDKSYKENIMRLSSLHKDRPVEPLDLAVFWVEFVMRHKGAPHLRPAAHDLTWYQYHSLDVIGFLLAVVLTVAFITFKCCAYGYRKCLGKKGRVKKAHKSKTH
The series is described as follows: Luminogenic UGT1A1 inhibition assay. In kind it is biochemical. The settings on record: specific inhibitor positive control, means ± S.D., read-out: IC50 Inhibitors. An excerpt:
In vitro enzymatic inhibition assays of human Phase I (CYPs) and Phase II (UGTs) DME, and P-gp were done with commercially available luminogenic assay systems. The assay systems were purchased from Promega (Madison, WI, USA), and the microsomes containing the recombinant human CYPs were purchased from Life Technologies (Carlsbad, CA, USA). The microsomes containing human UGT and P-gp were supplied in the luminogenic assay systems (Promega). […]. […]. The enzyme reaction was done according to the manufacturer’s instructions. The luminescent intensity, which is correlated with the enzyme activity, was quantified with a TriStar LB 941 multimode microplate reader (Berthold Technologies, Bad Wildbad, Germany). […]

For series [1], the target named is T2, P-gp (Homo sapiens, UniProt P08183).
T2 construct: purchased Promega V3601
The series is described as follows: Luminogenic P-gp (ATPase) inhibition assay. The format is biochemical. As to conditions: specific inhibitor positive control, means ± S.D., read-out: IC50 Inhibitors. An excerpt:
In vitro enzymatic inhibition assays of human Phase I (CYPs) and Phase II (UGTs) DME, and P-gp were done with commercially available luminogenic assay systems. The assay systems were purchased from Promega (Madison, WI, USA), and the microsomes containing the recombinant human CYPs were purchased from Life Technologies (Carlsbad, CA, USA). The microsomes containing human UGT and P-gp were supplied in the luminogenic assay systems (Promega). […] The enzyme reaction was done according to the manufacturer’s instructions.

The test system of a further series is CYP2C. The settings on record: competitive inhibitor; cited from earlier work.
Series [2] relates to LPS-stimulated RAW264.7 cells. Also noted: method as in PMID 23435946, PMID 23935669. As to conditions: cited from earlier work.
The test system of another series is human UGT2B17. Also on record: method as in PMID 22958586. The settings on record: cited from earlier work.
The test system of another series is UGT1A3. Also on record: method as in PMID 23339253. As to conditions: cited from earlier work.
Series [3] has as its target T2, P-gp. Also noted: method as in PMID 17256728. As to conditions: adriamycin-resisitant human breast cancer cells, MCF-7/ADR; cited from earlier work.

T2 sequence (P08183 whole entry): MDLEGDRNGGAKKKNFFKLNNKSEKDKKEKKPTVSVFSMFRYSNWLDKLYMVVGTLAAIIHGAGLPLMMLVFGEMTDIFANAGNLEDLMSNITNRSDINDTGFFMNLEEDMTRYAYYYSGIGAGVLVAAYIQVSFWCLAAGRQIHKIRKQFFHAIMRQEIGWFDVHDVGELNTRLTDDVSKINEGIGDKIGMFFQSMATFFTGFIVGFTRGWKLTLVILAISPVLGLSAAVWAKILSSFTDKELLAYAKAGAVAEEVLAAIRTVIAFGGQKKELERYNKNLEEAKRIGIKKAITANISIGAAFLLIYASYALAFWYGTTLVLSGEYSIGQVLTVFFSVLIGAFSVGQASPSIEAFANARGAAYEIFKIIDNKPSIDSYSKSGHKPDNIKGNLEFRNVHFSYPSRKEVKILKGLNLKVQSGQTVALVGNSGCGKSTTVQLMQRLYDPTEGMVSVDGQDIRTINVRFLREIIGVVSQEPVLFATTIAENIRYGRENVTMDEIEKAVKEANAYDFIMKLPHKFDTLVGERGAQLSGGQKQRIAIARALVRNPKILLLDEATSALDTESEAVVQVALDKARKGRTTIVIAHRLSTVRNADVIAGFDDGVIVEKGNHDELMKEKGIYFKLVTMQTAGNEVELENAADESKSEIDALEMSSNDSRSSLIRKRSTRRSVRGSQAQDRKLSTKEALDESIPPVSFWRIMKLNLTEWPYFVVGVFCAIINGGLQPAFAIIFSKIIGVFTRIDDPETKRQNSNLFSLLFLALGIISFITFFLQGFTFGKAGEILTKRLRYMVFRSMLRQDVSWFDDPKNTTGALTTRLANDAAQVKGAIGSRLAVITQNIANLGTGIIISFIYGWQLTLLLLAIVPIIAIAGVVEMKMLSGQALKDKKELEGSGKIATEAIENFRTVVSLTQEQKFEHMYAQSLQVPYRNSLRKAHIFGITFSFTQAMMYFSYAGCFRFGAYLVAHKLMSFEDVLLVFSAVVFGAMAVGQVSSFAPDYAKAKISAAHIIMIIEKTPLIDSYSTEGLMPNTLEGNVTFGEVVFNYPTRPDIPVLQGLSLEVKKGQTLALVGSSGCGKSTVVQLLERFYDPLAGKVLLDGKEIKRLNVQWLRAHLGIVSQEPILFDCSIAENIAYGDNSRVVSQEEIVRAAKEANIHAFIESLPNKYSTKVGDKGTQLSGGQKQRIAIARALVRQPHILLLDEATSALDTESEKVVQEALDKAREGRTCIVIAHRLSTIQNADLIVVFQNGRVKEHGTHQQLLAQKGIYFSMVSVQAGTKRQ

As to `O=C(O)Cc1ccccc1Nc1c(Cl)cccc1Cl` [Diclofenac], the half-maximal inhibitory concentration (IC50) on UGT1A1 was determined as 180 ± 29.6 µM.

With `[Na+].[Na+].[Na+].[O]=[V]([O-])([O-])[O-]` [Na3VO4], the IC50 on P-gp [1] worked out at 3.4 ± 0.32 µM.

In the case of `O=c1c(O)c(-c2ccc(O)c(O)c2)oc2cc(O)cc(O)c12` [Quercetin], in the series on CYP2C, the inhibitory constant (Ki) is 1.67 µM. Also, the “median effective doses (ED50), inhibition of NO production” value in series [2] was 5.5 µM. For the same compound, the “inhibition of human UGT2B17” value in the series on human UGT2B17 is “inhibits”.

As to `COc1cc2c(c(OC)c1OC)-c1c(cc(OC)c(OC)c1OC)C[C@H](C)[C@H](C)C2` [deoxyschizandrin], the “inhibition of UGT1A3 isotype” value in the series on UGT1A3 is recorded as “potently inhibit”.

With `COc1cc([C@H]2OC[C@H]3[C@@H]2CO[C@@H]3c2cc(OC)c(O)c(OC)c2)cc(OC)c1O` [syringaresinol], at P-gp [3], the “inhibitory effects on P-gp” value is listed as “exhibited inhibitory effects”. The “median effective doses (ED50), inhibition of NO production” value in series [2] was 10.0 µM.

As for schisantherin A, the “inhibition of UGT1A3 isotype” value in the series with UGT1A3 is “potently inhibit”.

As a reminder, the IC50 is the point on the concentration scale where inhibition reaches its midpoint. Broadly, the Ki is a measure of affinity in units of concentration, obtained from inhibition or displacement.
